Experiments:
[1] = test system: neuronal progenitor cells in the SVZ and the dentate gyrus; assay: Proliferation of neuronal progenitor cells (BrdU immunoreactive cell density) in non ischemic adult rats; assay type: in vivo, rat
Method: Two experiments were performed. In the first experiment, the effects of NO on the proliferation of neuronal progenitor cells in the SVZ and the dentate gyrus of non ischemic adult rats were examined. In the second experiment, the effects of NO on the proliferation of neuronal progenitor cells in the SVZ and in the dentate gyrus of ischemic adult rats were examined.
Male Wistar rats (n=28) weighing 300-350 g were anesthetized with halothane (1-3.5% in a mixture of 70% N2O and 30% O2) using a face mask. The rectal temperature was maintained at 37±1° C. throughout the surgical procedure using a feedback regulated water heating system. The right femoral artery and vein were cannulated with a PE-50 catheter for continuous monitoring of blood pressure and measurement of blood gases (pH, pO2, pCO2) and for drug administration, respectively. DETANONOate was intravenously and intraperitoneally injected to rats.
DETANONO treatment: Rats were randomly divided into four groups. Group 1 (single Rx), rats were intravenously injected with four consecutive bolus doses of DETANONO (0.1 mg/kg each) every fifteen minutes (total dose of 0.4 mg/kg). Group 2 (two Rx group), rats were intravenously injected with four consecutive bolus doses of DETANONO (0.1 mg/kg each) every fifteen minutes (total dose 0.4 mg/kg) and rats received a second treatment at 24 hours later. Group 3 (seven Rx group), rats received four consecutive intravenous bolus doses of DETANONO (0.1 mg/kg each) every fifteen minutes on the first experimental day and rats were intraperitoneally injected with a bolus dose of DETANONO (0.4 mg/kg) daily for an additional six consecutive days. Group 4 (control), rats received saline only (single dose).
Rats received an intraperitoneal injection of BrdU (50 mg/kg) on the first day of DETANONO treatment and daily intraperitoneal injections of BrdU for fourteen consecutive days. To determine whether the proliferation and the differentiation of cells in the SVZ and dentate gyrus of adult rats is affected by NO, rats were sacrificed at fourteen days (n=3-5 per group) and 42 days (n=3-5 per group) after first dose of DETANONO treatment, respectively. Rats were transcardially perfused with 4% paraformaldehyde in 100 mM phosphate buffer, pH 7.4. Brains were removed and fixed in 4% formaldehyde.
For BrdU immunostaining, DNA was first denatured by incubating brain sections (6 μm) in 50% formamide 2×SSC at 65° C. for 2 hours and then in 2N HCl at 37° C. for 30 minutes. Sections were then rinsed with Tris buffer and treated with 1% of H2O2 to block endogenous peroxidase. Sections were incubated with a primary antibody to BrdU (1:100) at room temperature for one hour and then incubated with biotinylated secondary antibody (1:200, Vector, Burlingame, Calif.) for one hour. Reaction product was detected using 3′3′-diaminobenzidine-tetrahydrochloride (DAB, Sigma).
BrdU immunostained sections were digitized under 40× objectively (Olympus BX40) via the MCID computer imaging analysis system (Imaging Research, St. Catharines, Canada). BrdU immunoreactive nuclei were counted on a computer monitor to improve visualization and in one focal plane to avoid over-sampling. Structures were sampled either by selecting predetermined areas on each section (RMS and OB) or by analyzing entire structures on each section (dentate gyrus and SVZ).
Every 40th coronal section was selected from each rat for a total of seven sections between AP+10.6 mm, genu corpus callosum, and AP+8.74 mm-anterior commissure crossing (Paxinos and Watson, 1986). BrdU immunoreactive-positive nuclei were counted in the lateral ventricle wall. All BrdU immunoreactive-positive nuclei in these areas are presented as the number of the BrdU immunoreactive cells/mm^2. Density for the seven sections was averaged to obtain a mean density value for each animal.
Every 20th section was selected from each rat for a total of six sections from the sagittal series of the OB/frontal cortex. […]

ischemic rats (stroke) = assay: Battery of neurological functional tests (NSS, Rotarod, footfault, adhesive removal, body weight) after stroke; assay type: in vivo, rat
Method: Administration of nitric oxide donor compound (DETA/NO) to normal and ischemic rats promotes neurogenesis in non-ischemic and ischemic brains. Since then, additional experiments have been performed to test the hypothesis that neurogenesis induced by DETA/NO promotes functional improvement after stroke; the data is provided herewith. Animals were administered (iv/ip) DETA/NO at one day (Group 1) or seven days (Group 2) after induction of stroke and followed by daily injection (ip) of DETA/NO over a period of seven days. Another NO donor compound (SNAP) was administered (iv) to ischemic rats at one day and two days after stroke (Group 3). Young (3 month old) rats were used in Groups 1 and 2. Middle aged rats (10 to 12 months old) were used in Group 3. A battery of neurological functional tests were measured from two days to forty-two days after stroke. These tests included 1) Neurological severity score (NSS) which measures motor, sensory and reflex functions and is similar to the contralateral neglect testing described in humans. The higher the score, the more severe the injury; 2) Rotarod test measures fore and hindlimb motor coordination and balance. Data are presented as percentage of baseline values; 3) Footfault test measures fore and hindlimb motor coordination. The higher the number, the more severe the injury; 4) Adhesive removal test measures sensorimotor impairments. Data are presented as time (seconds). The longer the time period, the more severe the injury; 5) Animal body weight.

NCCN(CCN)/[N+]([O-])=N/O [DETANONO, DETANONOate]
Density of newborn cells, Olfactory bulb ([1]; ONCE, 4 weeks after last BrdU injection (42 d), Contralateral): 80 ± 12.3 cells per mm^2
Density of newborn cells, Olfactory bulb ([1]; ONCE, 4 weeks after last BrdU injection (42 d), Ipsilateral): 75.65 ± 10.85 cells per mm^2
Density of newborn cells, Rostral migratory stream ([1]; ONCE, 4 weeks after last BrdU injection, Left side): 26.25 ± 6.9 cells per mm^2
Density of newborn cells, Rostral migratory stream ([1]; ONCE, 4 weeks after last BrdU injection, Right side): 22.5 ± 5.95 cells per mm^2
Density of newborn cells, Olfactory bulb ([1]; ONCE, 1 day after last BrdU injection (14 d), Contralateral): 39.75 ± 6.2 cells per mm^2
Density of newborn cells, Olfactory bulb ([1]; ONCE, 1 day after last BrdU injection (14 d), Ipsilateral): 41.4 ± 5.55 cells per mm^2
Density of newborn cells, Rostral migratory stream ([1]; ONCE, 1 day after last BrdU injection (14 d), Left side): 998.55 ± 59.7 cells per mm^2
Density of newborn cells, Rostral migratory stream ([1]; ONCE, 1 day after last BrdU injection (14 d), Right side): 950.25 ± 99.55 cells per mm^2
Density of newborn cells, Olfactory bulb ([1]; TWICE, 4 weeks after last BrdU injection (42 d), Contralateral): 98.4 ± 19.95 cells per mm^2
Density of newborn cells, Olfactory bulb ([1]; TWICE, 4 weeks after last BrdU injection (42 d), Ipsilateral): 85 ± 15.95 cells per mm^2
Density of newborn cells, Rostral migratory stream ([1]; TWICE, 4 weeks after last BrdU injection, Left side): 37.8 ± 5.15 cells per mm^2
Density of newborn cells, Rostral migratory stream ([1]; TWICE, 4 weeks after last BrdU injection, Right side): 32.9 ± 8.15 cells per mm^2
Density of newborn cells, Olfactory bulb ([1]; TWICE, 1 day after last BrdU injection (14 d), Contralateral): 99.6 ± 10.5 cells per mm^2
Density of newborn cells, Olfactory bulb ([1]; TWICE, 1 day after last BrdU injection (14 d), Ipsilateral): 91.65 ± 12.35 cells per mm^2
Density of newborn cells, Rostral migratory stream ([1]; TWICE, 1 day after last BrdU injection (14 d), Left side): 1070.85 ± 160.1 cells per mm^2
Density of newborn cells, Rostral migratory stream ([1]; TWICE, 1 day after last BrdU injection (14 d), Right side): 991 ± 98.25 cells per mm^2
BrdU immunoreactive cells in OB ([1]; non ischemic rats, 42 days after a single set, fourteen and 42 days after two and seven sets, vs control): significant increases
number of BrdU immunoreactive cells in the SVZ, seven doses vs one and two doses ([1]; non ischemic rats, fourteen days after treatment): highest number of BrdU immunoreactive cells
numbers of BrdU immunoreactive cells in the RMS ([1]; non ischemic rats, fourteen days and 42 days after treatment): did not significantly increase
percentage of distribution of BrdU immunoreactive cells in the dentate gyrus ([1]; non ischemic rats, fourteen days and 42 days, vs control): significantly decreases percentage of BrdU immunoreactive cells in subgranular zone and significantly increases in the granule layers
numbers of BrdU immunoreactive cells in the dentate gyrus ([1]; non ischemic rats, single treatment, fourteen days and 42 days): did not significantly increase
numbers of BrdU immunoreactive cells in the dentate gyrus ([1]; non ischemic rats, two and seven sets, fourteen days and 42 days, vs control): significant (p<0.01) increases
numbers of BrdU immunoreactive cells in the SVZ ([1]; non ischemic rats, vs saline at fourteen days and 42 days after treatment): significant (p<0.05) increase
Density of newborn cells, Olfactory bulb ([1]; × 7 TIMES, 4 weeks after last BrdU injection (42 d), Contralateral): 100.65 ± 19 cells per mm^2
Density of newborn cells, Olfactory bulb ([1]; × 7 TIMES, 4 weeks after last BrdU injection (42 d), Ipsilateral): 84.4 ± 7.1 cells per mm^2
Density of newborn cells, Rostral migratory stream ([1]; × 7 TIMES, 4 weeks after last BrdU injection, Left side): 47.5 ± 15.6 cells per mm^2
Density of newborn cells, Rostral migratory stream ([1]; × 7 TIMES, 4 weeks after last BrdU injection, Right side): 45 ± 11.35 cells per mm^2
Density of newborn cells, Olfactory bulb ([1]; × 7 TIMES, 1 day after last BrdU injection (14 d), Contralateral): 116.55 ± 16.45 cells per mm^2
Density of newborn cells, Olfactory bulb ([1]; × 7 TIMES, 1 day after last BrdU injection (14 d), Ipsilateral): 106.25 ± 17.7 cells per mm^2
Density of newborn cells, Rostral migratory stream ([1]; × 7 TIMES, 1 day after last BrdU injection (14 d), Left side): 1312.5 ± 265 cells per mm^2
Density of newborn cells, Rostral migratory stream ([1]; × 7 TIMES, 1 day after last BrdU injection (14 d), Right side): 1169.4 ± 218.85 cells per mm^2
animal body weight (ischemic rats (stroke); Group 1: from one day after stroke, daily ip over seven days, vs control): Significant improvements
motor and sensorimotor functions (Rotarod, Adhesive Removal, NSS tests) (ischemic rats (stroke); Group 1: from one day after stroke, daily ip over seven days, young rats, vs control): Significant improvements
neurological function, Rotarod test (ischemic rats (stroke); Group 2: from seven days after stroke, at 28 and 42 days after stroke, only this test): significant improvement

— patent publication US8383626B2, “Nitric oxide donors for inducing neurogenesis” (Henry Ford Health System, priority 1999, dated 2013)
